According to patent EP0059009A1, “Pharmaceutical compositions containing quinoline derivatives as active component, a method for the preparation of such compositions, new quinoline derivatives and a method for the preparation thereof” (ACF Chemiefarma N.V., priority 1981, dated 1982):

Tests used:
guinea pigs = experiment: Guinea pigs electrostimulation test (arrhythmias induced by electrostimulation of the right ventricle); assay type: in vivo; settings: for Percent increase in voltage (%) required for arrhythmia: given intraduodenally 30 min before stimulation, anaesthetised guinea pigs, treated vs control animals
Method: Arrhythmias are induced in guinea pigs by electro- stimulation of the right ventricle of the heart. The animals are anaesthesized with urethane (1.2 g/kg i.p.) and artificially respirated before a needle electrode is inserted in the right venticle of the heart. Substances are given intraduodinally 30 min. before the stimulation at a standard dose of 32 mg/kg.
The voltage needed for induction of extra systoles in control animals (n = 6) is compared with that required for induction of arrhythmias in treated animals (n = 6).
-This method is based on the work of L. Szekeres and G.J. Papp, Naunyn-Schmiedebergs Arch. Exp. Path. Pharmak., 245, 70 (1963).

malaria = settings: reported by Ainly and King, Proc. Roy. Soc. (London) B 125, 49 (1938); cited from earlier work

## C=CC1CNCCC1CCC(O)c1ccnc2ccc(OC)cc12 (stereo not drawn) [I, Quinicinol-l.bifumarate]
Guinea pigs; Dose 16 mg/kg
  Percent increase in voltage (%) required for arrhythmia: 25%
Guinea pigs; Dose 32 mg/kg
  Percent increase in voltage (%) required for arrhythmia: 114%

## C=CC1CNCCC1CCC(O)c1ccnc2ccccc12 (stereo not drawn) [III]
Guinea pigs; Dose 32 mg/kg
  Percent increase in voltage (%) required for arrhythmia: 35%

## CCC1CNCCC1CCC(O)c1ccnc2ccc(OC)cc12 (stereo not drawn) [II]
Guinea pigs; Dose 16 mg/kg
  Percent increase in voltage (%) required for arrhythmia: 33.9%
Guinea pigs; Dose 32 mg/kg
  Percent increase in voltage (%) required for arrhythmia: 176%

## CCC1CNCCC1CC(O)Cc1ccnc2ccc(OC)cc12 (stereo not drawn) [Reference com-pound of formula 6a, reference compound]
Guinea pigs; Dose 16 mg/kg
  Percent increase in voltage (%) required for arrhythmia: 0%
Guinea pigs; result in words, dose not given
  anti-arrhythmic screen using the electro-stimulation test: inactive

## CCC1CNCCC1CCC(O)c1ccnc2ccc(OCCC(C)C)cc12 (stereo not drawn) [VII]
Guinea pigs; Dose 23.5 mg/kg
  Percent increase in voltage (%) required for arrhythmia: 85%

## CCC1CNCCC1CCC(O)c1ccnc2ccc(OC)cc12 (stereo not drawn) [dihydroquiniconol, dihydroquinicinol]
malaria
  anti-malaria activity: did not show anti-malaria activity
